Legend:
[1] = target: T1, Alpha-1A adrenergic receptor (Rattus norvegicus, UniProt P43140); assay: Antagonist activity at alpha1A adrenoceptor in Sprague-Dawley rat urethra assessed as inhibition of norepinephrine-induced smooth muscle contraction after 20 mins
T1 sequence (P43140 whole entry): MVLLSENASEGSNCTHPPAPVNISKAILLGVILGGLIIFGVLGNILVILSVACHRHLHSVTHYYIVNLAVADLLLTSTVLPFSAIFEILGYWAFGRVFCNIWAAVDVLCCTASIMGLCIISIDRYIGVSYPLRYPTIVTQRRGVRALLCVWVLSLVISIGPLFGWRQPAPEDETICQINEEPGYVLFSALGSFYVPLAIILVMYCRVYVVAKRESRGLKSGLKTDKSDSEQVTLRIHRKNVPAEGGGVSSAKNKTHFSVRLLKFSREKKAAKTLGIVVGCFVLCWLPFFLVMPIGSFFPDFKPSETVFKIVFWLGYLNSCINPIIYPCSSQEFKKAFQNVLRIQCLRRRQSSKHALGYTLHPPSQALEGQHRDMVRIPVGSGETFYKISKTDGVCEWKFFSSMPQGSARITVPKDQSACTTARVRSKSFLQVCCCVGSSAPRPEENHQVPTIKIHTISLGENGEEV

[2] = target: T2, Alpha-1A adrenergic receptor (Homo sapiens) (UniProt P35348); assay: Antagonist activity at human full-length N-terminal SNAP-tagged alpha1A adrenoceptor expressed in HEK293 cells assessed as inhibition of agonist-induced calcium mobilization at 10 uM preincubated for 10 mins followed by agonist addition by fluo-4 AM dye-based assay relative to control; type: functional, cell-based
T2 sequence (whole entry): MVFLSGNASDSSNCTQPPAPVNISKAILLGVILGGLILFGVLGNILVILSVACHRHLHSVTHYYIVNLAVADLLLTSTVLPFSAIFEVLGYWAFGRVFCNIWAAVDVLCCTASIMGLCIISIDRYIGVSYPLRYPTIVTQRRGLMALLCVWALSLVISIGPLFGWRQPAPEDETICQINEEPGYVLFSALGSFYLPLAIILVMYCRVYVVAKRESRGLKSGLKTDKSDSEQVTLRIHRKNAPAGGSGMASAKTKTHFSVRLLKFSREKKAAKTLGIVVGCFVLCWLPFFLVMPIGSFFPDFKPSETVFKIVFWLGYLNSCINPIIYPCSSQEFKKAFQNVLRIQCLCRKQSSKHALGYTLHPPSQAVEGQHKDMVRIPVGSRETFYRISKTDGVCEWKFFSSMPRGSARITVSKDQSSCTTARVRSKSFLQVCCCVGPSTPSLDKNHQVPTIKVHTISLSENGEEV

[3] = Toxicity in patient assessed as orthostatic hypotension; settings: human, in vivo
[4] = target: T3, Alpha-1B adrenergic receptor (Rattus norvegicus, UniProt P15823); assay: Antagonist activity at alpha1B adrenoceptor in Sprague-Dawley rat aorta assessed as inhibition of norepinephrine-induced smooth muscle contraction after 20 mins
T3 sequence (P15823 whole entry): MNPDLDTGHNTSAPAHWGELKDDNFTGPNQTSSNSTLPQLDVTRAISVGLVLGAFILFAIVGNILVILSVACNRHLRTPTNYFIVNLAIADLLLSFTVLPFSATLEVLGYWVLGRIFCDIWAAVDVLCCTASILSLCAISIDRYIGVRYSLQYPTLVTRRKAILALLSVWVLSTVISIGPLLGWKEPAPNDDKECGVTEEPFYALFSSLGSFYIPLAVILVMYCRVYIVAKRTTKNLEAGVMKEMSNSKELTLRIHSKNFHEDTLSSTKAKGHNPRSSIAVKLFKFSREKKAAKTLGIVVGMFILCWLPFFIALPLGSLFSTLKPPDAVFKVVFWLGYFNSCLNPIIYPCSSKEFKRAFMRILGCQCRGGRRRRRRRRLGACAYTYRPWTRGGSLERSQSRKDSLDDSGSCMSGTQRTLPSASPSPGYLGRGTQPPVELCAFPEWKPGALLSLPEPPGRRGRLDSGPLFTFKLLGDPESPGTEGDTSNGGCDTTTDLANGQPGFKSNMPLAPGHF

[5] = target: Voltage-gated inwardly rectifying potassium channel KCNH2 (Homo sapiens, UniProt Q12809); assay: Inhibition of human ERG
Voltage-gated inwardly rectifying potassium channel KCNH2, sequence (Q12809 whole entry): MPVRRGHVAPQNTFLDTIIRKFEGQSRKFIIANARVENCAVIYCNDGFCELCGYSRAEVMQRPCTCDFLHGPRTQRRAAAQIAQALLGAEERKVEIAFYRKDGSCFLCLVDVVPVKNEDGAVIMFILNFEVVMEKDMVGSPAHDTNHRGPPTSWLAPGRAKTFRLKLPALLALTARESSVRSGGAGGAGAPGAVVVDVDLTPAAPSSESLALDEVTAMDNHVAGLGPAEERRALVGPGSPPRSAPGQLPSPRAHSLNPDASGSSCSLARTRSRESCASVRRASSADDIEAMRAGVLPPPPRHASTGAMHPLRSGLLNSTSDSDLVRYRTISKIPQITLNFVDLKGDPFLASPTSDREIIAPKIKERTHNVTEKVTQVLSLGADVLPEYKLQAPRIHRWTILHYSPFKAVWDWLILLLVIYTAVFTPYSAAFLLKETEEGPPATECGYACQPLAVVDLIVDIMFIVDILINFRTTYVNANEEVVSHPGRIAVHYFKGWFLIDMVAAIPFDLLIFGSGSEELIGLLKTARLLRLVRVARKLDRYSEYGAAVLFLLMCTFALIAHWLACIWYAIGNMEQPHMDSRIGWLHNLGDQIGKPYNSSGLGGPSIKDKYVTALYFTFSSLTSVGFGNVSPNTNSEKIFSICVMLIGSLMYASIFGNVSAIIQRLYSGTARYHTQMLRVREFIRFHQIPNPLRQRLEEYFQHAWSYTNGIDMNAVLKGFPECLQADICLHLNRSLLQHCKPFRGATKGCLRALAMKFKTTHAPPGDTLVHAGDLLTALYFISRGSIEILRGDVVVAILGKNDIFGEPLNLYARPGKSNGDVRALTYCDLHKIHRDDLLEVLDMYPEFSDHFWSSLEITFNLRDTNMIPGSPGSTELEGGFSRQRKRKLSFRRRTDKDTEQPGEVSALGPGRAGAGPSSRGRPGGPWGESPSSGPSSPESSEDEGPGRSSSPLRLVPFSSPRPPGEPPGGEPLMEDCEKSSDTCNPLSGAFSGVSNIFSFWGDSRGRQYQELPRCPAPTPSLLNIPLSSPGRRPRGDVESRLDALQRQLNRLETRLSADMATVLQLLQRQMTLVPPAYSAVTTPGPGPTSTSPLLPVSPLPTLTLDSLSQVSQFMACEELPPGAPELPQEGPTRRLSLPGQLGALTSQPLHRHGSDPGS

[6] = tested on: Rattus norvegicus; assay: Increase in voided volume in po dosed Sprague-Dawley rat benign prostatic hyperplasia model administered 20 mins followed by distilled watering loading measured for 2 hrs; type: functional
[7] = tested on: Rattus norvegicus; assay: Inhibition of micturition frequency in po dosed Sprague-Dawley rat benign prostatic hyperplasia model administered 20 mins followed by distilled watering loading measured for 2 hrs; type: functional

- IC50 [1]: 0.0008 µM
- inhibition [2]: 100%
- IC50 [4]: 0.0901 µM
Compound: C[C@H](Cc1cc2c(c(C(N)=O)c1)N(CCCO)CC2)NCCOc1ccccc1OCC(F)(F)F [SILODOSIN]
- Activity [3]: 2.6%
- IC50 [5]: 8.2 µM
- Activity [6]: Dose-dependent effect
- inhibition [7]: Dose-dependent effect

From ChEMBL document CHEMBL3856276, “Design, Synthesis, and Biological Evaluation of Novel Tetrahydroprotoberberine Derivatives (THPBs) as Selective α1A-Adrenoceptor Antagonists” (J Med Chem, 2016)
